In patent publication US10961238B2, “Modulators of hedgehog (Hh) signaling pathway” (E-THERAPEUTICS PLC, priority 2016, dated 2021):

How the values were obtained:
[1] = target: T1, SMO (Homo sapiens, UniProt Q99835); assay: Smoothened (SMO) binding fluorescence polarisation assay (BODIPY-cyclopamine competition); conditions: SMO binding FP assay versus C3H10T1/2 cellular assay
T1 construct: expressed in transfected cells; host or cells: HEK293
Protocol: Standard Protocol for Smoothened (SMO) Binding Fluorescence Polarisation Assay.
The assay measures the ability of the test compounds to compete with a fluorescently-labelled version of the known ligand, cyclopamine, for binding to SMO. The fluorescent tag used is BODIPY (boron dipyrromethene).
An aliquot of a membrane preparation from a SMO-over-expressing HEK293 cell line is diluted to protein concentration of 0.117 mg/ml in assay buffer (25 mM HEPES, 2 mM EDTA, 0.05% γ-globulin, 0.01% pluronic acid pH7.4, plus protease Inhibitor cocktail). 8.5 μl of the membrane suspension is added to each well of a black, low volume 384 well microtitre plate.
Test compounds are added in a seven point dilution range to the wells containing the membrane preparation. The final DMSO solvent concentration in the wells is maintained at 0.3%. 6.5 μl of a 6.9 nM BODIPY-cyclopamine solution is added to each of the wells (final assay concentration 3 nM).
The plate is sealed and stored in the dark at room temperature for 24 hours prior to measurement of the fluorescence polarisation signal on a Perkin Elmer Envision multi-label reader.
Table 4 below details the ratio of SMO binding compared to the potency in the C3H10T1/2 cellular assay. The small ratio between SMO binding and potency for vismodegib is considered to be reflective of the fact vismodegib acts mainly through inhibition of the SMO protein. The larger ratios for the compound of the invention are considered to be reflective of alternate actions outside of direct SMO inhibition.

[2] = system: C3H10T1/2 cells; assay: C3H assay: differentiation of C3H10T1/2 cells by mSHH, measurement of alkaline phosphatase; assay type: cell-based, mouse; conditions: Mus musculus, C3H 10T1/2; C3H10T1/2 cells stimulated with mSHH for 72 hours; alkaline phosphatase activity; read-out: IC50 Ranges

T1 sequence (Q99835 28-787): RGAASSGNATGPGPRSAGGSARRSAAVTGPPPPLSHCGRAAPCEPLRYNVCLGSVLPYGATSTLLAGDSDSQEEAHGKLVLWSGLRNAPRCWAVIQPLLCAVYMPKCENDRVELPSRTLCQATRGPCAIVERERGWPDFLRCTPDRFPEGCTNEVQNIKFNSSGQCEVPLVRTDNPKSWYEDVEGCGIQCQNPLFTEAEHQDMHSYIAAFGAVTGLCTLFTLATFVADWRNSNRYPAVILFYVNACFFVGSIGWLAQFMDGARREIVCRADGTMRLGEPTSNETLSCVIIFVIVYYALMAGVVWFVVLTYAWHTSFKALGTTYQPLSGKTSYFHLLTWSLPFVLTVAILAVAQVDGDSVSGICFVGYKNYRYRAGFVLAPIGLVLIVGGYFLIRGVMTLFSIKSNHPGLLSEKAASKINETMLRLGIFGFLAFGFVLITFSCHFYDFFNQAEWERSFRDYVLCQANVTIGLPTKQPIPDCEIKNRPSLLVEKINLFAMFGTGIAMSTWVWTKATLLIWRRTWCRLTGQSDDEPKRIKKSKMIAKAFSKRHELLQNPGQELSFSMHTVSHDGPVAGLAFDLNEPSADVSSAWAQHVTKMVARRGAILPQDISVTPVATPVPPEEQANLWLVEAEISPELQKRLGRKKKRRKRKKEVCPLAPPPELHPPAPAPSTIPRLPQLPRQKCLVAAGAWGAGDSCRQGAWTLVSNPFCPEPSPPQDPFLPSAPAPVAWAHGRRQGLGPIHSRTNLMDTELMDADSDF

Structure (SMILES) | Ratio of potency in SMO binding assay to potency in C3H10T1/2 cellular assay [1] | IC50 [2]
Cn1cc(-c2cnc3[nH]cc(C4CCN(S(=O)(=O)C5CN(C(=O)OC(C)(C)C)C5)CC4)c3c2)cn1 [Compound 122, tert-butyl 3-[4-[5-(1-methylpyrazol-4-yl)-1H-pyrrolo [2,3-b]pyridin-3-yl]piperidin-1-yl]sulfonylaze-tidine-1-carboxylate] | >55 | 100 to 1000 nM
O=S(=O)(C1CN(CC2(C(F)(F)F)CC2)C1)N1CCC(c2c[nH]c3ncccc23)CC1 [Compound 313, 3-[1-[1-[[1-(trifluoromethyl)cyclopropyl]methyl]azetidin-3-yl]sulfonylpiperidin-4-yl]-1H-pyrrolo[2,3-b]pyridine] | 2.7 | 100 to 1000 nM
COC(=O)c1cnc2[nH]cc(C3CCN(S(=O)(=O)C4CCN(C(=O)OC(C)(C)C)CC4)CC3)c2c1 [Compound 16, methyl 3-[1-[1-[(2-methylpropan-2-yl)oxycarbonyl]piperidin-4-yl]sulfonylpiper-idin-4-yl]-1H-pyrrolo[2,3-b]pyridine-5-carboxylate] | >78 | 100 to 1000 nM
O=C([C@H]1C[C@@H](S(=O)(=O)N2CCC(c3c[nH]c4ncccc34)CC2)C1)N1CCOCC1 [Compound 296, cis-morpholin-4-yl-[3-[4-(1H-pyrrolo[2,3-b]pyridin-3-yl)piperidin-1-yl]sulfonylcyclobutyl] methanone] | 3.8 | 100 to 1000 nM
Cc1noc(C)c1CNC(=O)C1CC(S(=O)(=O)N2CCC(c3c[nH]c4ncccc34)CC2)C1 (centres unmarked) [Compound 284, N-[(3,5-dimethyl-1,2-oxazol-4-yl)methyl]-3-[4-(1H-pyrrolo [2,3-b]pyridin-3-yl)piperidin-1-yl]sulfonylcycl obutane-1-carboxamide] | 2.3 | 100 to 1000 nM
COc1cnc2[nH]cc(C3CCN(S(=O)(=O)C4CCN(C(=O)OC(C)(C)C)CC4)CC3)c2c1 [Compound 115, tert-butyl 4-[4-(5-methoxy-1H-pyrrolo[2,3-b]pyridin-3-yl)piperidin-1-yl]sulfonylpiper-idine-1-carboxylate] | 20 | 100 to 1000 nM
CC(C)OC(=O)N1CC(S(=O)(=O)N2CCC(c3c[nH]c4ncccc34)CC2)C1 [Compound 97, propan-2-yl 3-[4-(1H-pyrrolo[2,3-b]pyridin-3-yl)piperidin-1-yl]sulfonylaze-tidine-1-carboxylate] | 22 | 100 to 1000 nM
O=C(NC1(C(F)(F)F)CC1)[C@H]1C[C@H](S(=O)(=O)N2CCC(c3c[nH]c4ncccc34)CC2)C1 [Compound 298, trans-3-[4-(1H-pyrrolo[2,3-b]pyridin-3-yl)piperidin-1-yl]sulfonyl-N-[1-(trifluoromethyl)cyclopropyl] cyclobutane-1-carboxamide] | 4.9 | 100 to 1000 nM
CC(C)(C)C(=O)CN1CC(S(=O)(=O)N2CCC(c3ccc(Cl)cc3)CC2)C1 [Compound 396, 1-[3-[4-(4-chlorophenyl)piperidin-1-yl]sulfonylaze-tidin-1-yl]-3,3-dimethylbutan-2-one] | 2.5 | 100 to 1000 nM
Cc1noc(C)c1NC(=O)N1CC(S(=O)(=O)N2CCC(c3nc4ccccc4s3)CC2)C1 [Compound 294, 3-[4-(1,3-benzothiazol-2-yl)piperidin-1-yl]sulfonyl-N-(3,5-dimethyl-1,2-oxazol-4-yl)azetidine-1-carboxamide] | 5.0 | 100 to 1000 nM
CC(C)(C)OC(=O)N1CC(S(=O)(=O)N2CCC(c3ccnc4ccccc34)CC2)C1 [Compound 410, tert-butyl 3-(4-quinolin-4-ylpiperidin-1-yl)sulfonylaze-tidine-1-carboxylate] | 3.1 | 100 to 1000 nM
C[C@](O)(C(=O)N1CC(S(=O)(=O)N2CCC(c3coc4cccnc34)CC2)C1)C(F)(F)F [Compound 395, (2S)-3,3,3-trifluoro-1-[3-(4-furo[3,2-b]pyridin-3-ylpiperidin-1-yl)sulfonyl-azetidin-1-yl]-2-hydroxy-2-methylpropan-1-one] | 2.6 | 100 to 1000 nM

More lines, now with the values ahead:

Ratio of potency in SMO binding assay to potency in C3H10T1/2 cellular assay [1] | IC50 [2] | Structure (SMILES)
5.4 | 10 to 100 nM | C[C@](O)(C(=O)N1CC(S(=O)(=O)N2CCC(c3c[nH]c4ncccc34)CC2)C1)C(F)(F)F [Compound 388, (2S)-3,3,3-trifluoro-2-hydroxy-2-methyl-1-[3-[4-(1H-pyrrolo[2,3-b]pyridin-3-yl)piperidin-1-yl]sulfonylaze-tidin-1-yl]propan-1-one]
4.8 | 100 to 1000 nM | O=C([C@H]1C[C@H](S(=O)(=O)N2CCC(c3c[nH]c4ncccc34)CC2)C1)N1CCOCC1 [Compound 308, trans-morpholin-4-yl-[3-[4-(1H-pyrrolo [2,3-b]pyridin-3-yl)piperidin-1-yl]sulfonyl-cyclobutyl] methanone]
42 | 100 to 1000 nM | CN(C)c1ccc(C2CCN(S(=O)(=O)C3CCN(C(=O)OC(C)(C)C)CC3)CC2)cc1 [Compound 112]
4.3 | 100 to 1000 nM | O=C(NCCS(=O)(=O)N1CCC(c2c[nH]c3ncccc23)CC1)OC1CCCCC1 [Compound 292, cyclohexyl N-[2-[4-(1H-pyrrolo-[2,3-b]pyridin-3-yl)piperidin-1-yl]sulfonylethyl] carbamate]
2.9 | 10 to 100 nM | Cc1noc(C)c1NC(=O)C1CC(S(=O)(=O)N2CCC(c3c[nH]c4ncccc34)CC2)C1 (centres unmarked) [Compound 285, N-(3,5-dimethyl-1,2-oxazol-4-yl)-3-[4-(1H-pyrrolo [2,3-b]pyridin-3-yl)piperidin-1-yl]sulfonylcycl obutane-1-carboxamide]
>10 | 100 to 1000 nM | COC(=O)[C@H]1C[C@H](S(=O)(=O)N2CCC(c3c[nH]c4ncccc34)CC2)C1 [Compound 274, methyl trans-3-[4-(1H-pyrrolo[2,3-b]pyridin-3-yl)piperidin-1-yl]sulfonylcycl obutane-1-carboxylate]
>37 | 100 to 1000 nM | Cc1ccc(S(=O)(=O)n2ccc3c(C4=CCN(S(=O)(=O)C5CCN(C(=O)OC(C)(C)C)CC5)CC4)ncnc32)cc1 [Compound 239, tert-butyl 4-[[4-[7-(4-methylphenyl)sulfonylpyrrolo[2,3-d]pyrimidin-4-yl]-3,6-dihydro-2H-pyridin-1-yl]sulfonyl] piperidine-1-carboxylate]
3.0 | 100 to 1000 nM | O=C(CC(O)(C(F)(F)F)C(F)(F)F)N1CC(S(=O)(=O)N2CCC(c3ccncc3)CC2)C1 [Compound 401, 4,4,4-trifluoro-3-hydroxy-1-[3-(4-pyridin-4-ylpiperidin-1-yl)sulfonylaze-tidin-1-yl]-3-(trifluoromethyl) butan-1-one]
3.2 | 10 to 100 nM | C[C@@H](NC(=O)N1CC(S(=O)(=O)N2CCC(c3coc4cccnc34)CC2)C1)C(F)(F)F [Compound 328, 3-(4-furo[3,2-b]pyridin-3-ylpiperidin-1-yl)sulfonyl-N-[(2R)-1,1,1-trifluoropropan-2-yl]azetidine-1-carboxamide]
2.5 | 10 to 100 nM | O=C(CC(O)(C(F)(F)F)C(F)(F)F)N1CC(S(=O)(=O)N2CCC(c3c[nH]c4ncccc34)CC2)C1 [Compound 333, 4,4,4-trifluoro-3-hydroxy-1-[3-[[4-(1H-pyrrolo[2,3-b]pyridin-3-yl)-1-piperidyl]sulfonyl]azetidin-1-yl]-3-(trifluoromethyl)butan-1-one]
45 | 10 to 100 nM | O=C(OCC1CCCO1)N1CC(S(=O)(=O)N2CCC(c3c[nH]c4ncccc34)CC2)C1 (centres unmarked) [Compound 67, (oxolan-2-yl)methyl 3-[4-(1H-pyrrolo [2,3-b]pyridin-3-yl)piperidin-1-yl]sulfonylaze-tidine-1-carboxylate]
84 | 10 to 100 nM | CC(C)(C)OC(=O)N1CC(S(=O)(=O)N2CCC(c3coc4cccnc34)CC2)C1 [Compound 131, tert-Butyl 3-[(4-furo[3,2-b]pyridin-3-yl-1-piperidyl)sulfonyl]azetidine-1-carboxylate]
20 | 10 to 100 nM | O=C(OC[C@H]1CCCO1)N1CC(S(=O)(=O)N2CCC(c3c[nH]c4ncccc34)CC2)C1 [Compound 162, [(2R)-oxolan-2-yl]methyl 3-[4-(1H-pyrrolo[2,3-b]pyridin-3-yl)piperidin-1-yl]sulfonylaze-tidine-1-carboxylate]
